Source: PubChem BioAssay (NCI)
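Dose response: 5 concentrations. Exposure: 48 h. Format: 96-well plates. Endpoint: linear interpolation; highest concentration if not reached. Abbreviation: GI50, concentration required for 50% inhibition of growth. TGI marks complete inhibition of growth.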

Key:
Test in all cases: growth of human tumour cells (NCI), 48 h
SF-268 CNS = tested on: SF-268 CNS
MDA-MB-231 breast = tested on: MDA-MB-231 breast
NCI-H226 lung = tested on: NCI-H226 lung
CCRF-CEM leukemia = tested on: CCRF-CEM leukemia
U251 CNS = tested on: U251 CNS
RPMI-8226 leukemia = tested on: RPMI-8226 leukemia
HT29 colon = tested on: HT29 colon
MDA-MB-435 = tested on: MDA-MB-435
ACHN renal = tested on: ACHN renal
SNB-19 CNS = tested on: SNB-19 CNS
SN12C renal = tested on: SN12C renal
SF-295 CNS = tested on: SF-295 CNS
BT-549 breast = tested on: BT-549 breast
HCT-116 colon = tested on: HCT-116 colon
SF-539 CNS = tested on: SF-539 CNS
TK-10 renal = tested on: TK-10 renal
A498 renal = tested on: A498 renal
OVCAR-8 ovarian = tested on: OVCAR-8 ovarian
UACC-257 melanoma = tested on: UACC-257 melanoma
HOP-92 NSCLC = tested on: HOP-92 NSCLC
HL-60(TB) leukemia = tested on: HL-60(TB) leukemia
OVCAR-4 ovarian = tested on: OVCAR-4 ovarian
MOLT-4 leukemia = tested on: MOLT-4 leukemia
T-47D breast = tested on: T-47D breast
HCC-2998 colon = tested on: HCC-2998 colon
SR leukemia = tested on: SR leukemia
SK-MEL-2 melanoma = tested on: SK-MEL-2 melanoma
HCT-15 colon = tested on: HCT-15 colon
DU-145 prostate = tested on: DU-145 prostate
A549 NSCLC = tested on: A549 NSCLC
NCI-H460 lung = tested on: NCI-H460 lung
M14 melanoma = tested on: M14 melanoma
KM12 colon = tested on: KM12 colon
IGROV1 ovarian = tested on: IGROV1 ovarian
SNB-75 CNS = tested on: SNB-75 CNS
CAKI-1 renal = tested on: CAKI-1 renal
UO-31 renal = tested on: UO-31 renal
COLO 205 colon = tested on: COLO 205 colon
RXF 393 renal = tested on: RXF 393 renal
PC-3 prostate = tested on: PC-3 prostate
SK-OV-3 ovarian = tested on: SK-OV-3 ovarian
HS 578T breast = tested on: HS 578T breast
SK-MEL-28 melanoma = tested on: SK-MEL-28 melanoma
K-562 leukemia = tested on: K-562 leukemia
NCI-H522 lung = tested on: NCI-H522 lung
UACC-62 melanoma = tested on: UACC-62 melanoma
EKVX NSCLC = tested on: EKVX NSCLC
NCI-H23 lung = tested on: NCI-H23 lung
OVCAR-5 ovarian = tested on: OVCAR-5 ovarian
SK-MEL-5 melanoma = tested on: SK-MEL-5 melanoma
MALME-3M melanoma = tested on: MALME-3M melanoma
786-0 renal = tested on: 786-0 renal
HOP-62 NSCLC = tested on: HOP-62 NSCLC
MCF7 breast = tested on: MCF7 breast
OVCAR-3 ovarian = tested on: OVCAR-3 ovarian
LOX IMVI melanoma = tested on: LOX IMVI melanoma
SW-620 colon = tested on: SW-620 colon
NCI/ADR-RES ovarian = tested on: NCI/ADR-RES ovarian

Q: Which results are given for `COc1ccc2nc(NNC(=O)c3cnccn3)c3cccn3c2c1`?
A: GI50 (SF-268 CNS): 227 nM; TGI (SF-268 CNS): 19400 nM; GI50 (MDA-MB-231 breast): 833 nM; TGI (MDA-MB-231 breast): 17600 nM; GI50 (NCI-H226 lung): 428 nM; TGI (NCI-H226 lung): 6820 nM; GI50 (CCRF-CEM leukemia): 91.9 nM; TGI (CCRF-CEM leukemia): > 100000 nM; GI50 (U251 CNS): 184 nM; TGI (U251 CNS): 7160 nM; GI50 (RPMI-8226 leukemia): 312 nM; TGI (RPMI-8226 leukemia): > 100000 nM; GI50 (HT29 colon): 414 nM; TGI (HT29 colon): > 67100 nM; GI50 (MDA-MB-435): 572 nM; TGI (MDA-MB-435): > 100000 nM; GI50 (ACHN renal): 114 nM; TGI (ACHN renal): 7520 nM; GI50 (SNB-19 CNS): 350 nM; TGI (SNB-19 CNS): 28000 nM; GI50 (SN12C renal): 426 nM; TGI (SN12C renal): 13900 nM; GI50 (SF-295 CNS): 219 nM; TGI (SF-295 CNS): 4350 nM; GI50 (BT-549 breast): 857 nM; TGI (BT-549 breast): 21000 nM; GI50 (HCT-116 colon): 195 nM; TGI (HCT-116 colon): 5260 nM; GI50 (SF-539 CNS): 362 nM; TGI (SF-539 CNS): 10600 nM; GI50 (TK-10 renal): 329 nM; TGI (TK-10 renal): > 100000 nM; GI50 (A498 renal): 684 nM; TGI (A498 renal): 9500 nM; GI50 (OVCAR-8 ovarian): 303 nM; TGI (OVCAR-8 ovarian): > 47300 nM; GI50 (UACC-257 melanoma): 689 nM; TGI (UACC-257 melanoma): 7620 nM; GI50 (HOP-92 NSCLC): 930 nM; TGI (HOP-92 NSCLC): 9650 nM; GI50 (HL-60(TB) leukemia): 270 nM; GI50 (OVCAR-4 ovarian): 171 nM; TGI (OVCAR-4 ovarian): 5070 nM; GI50 (MOLT-4 leukemia): 201 nM; TGI (MOLT-4 leukemia): > 100000 nM; GI50 (T-47D breast): 433 nM; TGI (T-47D breast): 25500 nM; GI50 (HCC-2998 colon): 522 nM; TGI (HCC-2998 colon): > 52500 nM; GI50 (SR leukemia): 121 nM; TGI (SR leukemia): > 100000 nM; GI50 (SK-MEL-2 melanoma): 688 nM; TGI (SK-MEL-2 melanoma): > 100000 nM; GI50 (HCT-15 colon): 61.1 nM; TGI (HCT-15 colon): 2460 nM; GI50 (DU-145 prostate): 283 nM; TGI (DU-145 prostate): 26700 nM; GI50 (A549 NSCLC): 269 nM; TGI (A549 NSCLC): 14300 nM; GI50 (NCI-H460 lung): 134 nM; TGI (NCI-H460 lung): 3880 nM; GI50 (M14 melanoma): 208 nM; TGI (M14 melanoma): 2850 nM; GI50 (KM12 colon): 321 nM; TGI (KM12 colon): > 21000 nM; GI50 (IGROV1 ovarian): 132 nM; TGI (IGROV1 ovarian): 2320 nM; GI50 (SNB-75 CNS): 408 nM; TGI (SNB-75 CNS): 9310 nM; GI50 (CAKI-1 renal): 248 nM; TGI (CAKI-1 renal): 15500 nM; GI50 (UO-31 renal): 110 nM; TGI (UO-31 renal): 4980 nM; GI50 (COLO 205 colon): 331 nM; TGI (COLO 205 colon): 8280 nM; GI50 (RXF 393 renal): 663 nM; TGI (RXF 393 renal): 7590 nM; GI50 (PC-3 prostate): 227 nM; TGI (PC-3 prostate): > 100000 nM; GI50 (SK-OV-3 ovarian): 540 nM; TGI (SK-OV-3 ovarian): 9090 nM; GI50 (HS 578T breast): 2450 nM; TGI (HS 578T breast): > 59900 nM; GI50 (SK-MEL-28 melanoma): 382 nM; TGI (SK-MEL-28 melanoma): 29800 nM; GI50 (K-562 leukemia): 351 nM; TGI (K-562 leukemia): > 100000 nM; GI50 (NCI-H522 lung): 363 nM; TGI (NCI-H522 lung): 11500 nM; GI50 (UACC-62 melanoma): 278 nM; TGI (UACC-62 melanoma): 2480 nM; GI50 (EKVX NSCLC): 268 nM; TGI (EKVX NSCLC): 18900 nM; GI50 (NCI-H23 lung): 545 nM; TGI (NCI-H23 lung): > 36000 nM; GI50 (OVCAR-5 ovarian): 704 nM; TGI (OVCAR-5 ovarian): > 100000 nM; GI50 (SK-MEL-5 melanoma): 537 nM; TGI (SK-MEL-5 melanoma): 4390 nM; GI50 (MALME-3M melanoma): 639 nM; TGI (MALME-3M melanoma): 15400 nM; GI50 (786-0 renal): 321 nM; TGI (786-0 renal): 5610 nM; GI50 (HOP-62 NSCLC): 118 nM; TGI (HOP-62 NSCLC): 20000 nM; GI50 (MCF7 breast): 270 nM; TGI (MCF7 breast): 2770 nM; GI50 (OVCAR-3 ovarian): 236 nM; TGI (OVCAR-3 ovarian): > 22300 nM; GI50 (LOX IMVI melanoma): 177 nM; TGI (LOX IMVI melanoma): 1780 nM; GI50 (SW-620 colon): 315 nM; GI50 (NCI/ADR-RES ovarian): 207 nM; TGI (NCI/ADR-RES ovarian): 2090 nM
